Assay: Phase 1 study NCT03594422: adverse events graded by NCI CTCAE v4.03
Type: in vivo, human
Method: Part 1 was a dose-escalation study to determine the recommended phase 2 dose (RP2D) in solid tumors. […] The initial design was a 3 + 3 dose escalation from 20 mg, but the protocol was amended to randomly enroll and assign patients to starting doses of 30, 40, and 50 mg on the basis of safety data acquired in the CML trial.[20] […] An interactive web response system was used for randomization. Part 2 was a nonrandomized study focusing on patients with SDH-deficient GISTs. […] On the basis of preliminary data from adult patients, adolescent patients with advanced wild-type GISTs were also included in Part 2. The dosage for adolescents was adjusted according to their body weights.
AEs were evaluated at each follow-up visit: on Days 1, 8, 15, and 22 during Cycles 1 and 2; and on Days 1 and 15 in Cycle 3 and all subsequent cycles, up to 30 days after the final dose. All AEs were graded according to the National Cancer Institute Common Terminology Criteria for Adverse Events v4.03. Clinical laboratory investigations for routine blood examinations and serum chemistry parameters were performed during every cycle (on Day 1), during Cycles 1 and 2 (on Days 8, 15, and 22), and 30 days after the last dose of treatment. Urinalysis, coagulation, cardiac troponin I/T, lipase, amylase, and electrocardiographic evaluations were conducted at baseline; during Cycles 1 and 2 (on Days 1 and 15); during Cycles 3, 5, 7, and 9; every three cycles after Cycle 9 (on Day 1); and 14 days after the last dose of treatment. All patients underwent tumor imaging for response assessment via computed tomography or magnetic resonance imaging at screening and every two cycles (8 weeks) until progression or discontinuation. Target and nontarget lesions were assessed per the Response Evaluation Criteria in Solid Tumors version 1.1 (RECIST v1.1).

## Cc1ccc(C(=O)Nc2ccc(CN3CCN(C)CC3)c(C(F)(F)F)c2)cc1C#Cc1cnc2[nH]ncc2c1 [Olverembatinib, 3-[(1H-pyrazolo[3,4-b]pyridin-5-yl)ethynyl]-4-methyl-N-{4-[(4-methylpiperazin-1-yl)methyl]-3-(trifluoromethyl)phenyl]benzamide]
30 mg (n = 15), Any grade
  TRAE: AST increased: 5 (33.3) n (%)
  TRAE: Anemia: 1 (6.7) n (%)
  TRAE: Blood creatinine increased: 3 (20.0) n (%)
  TRAE: Constipation: 4 (26.7) n (%)
  TRAE: Fatigue: 4 (26.7) n (%)
  TRAE: Hypoalbuminemia: 4 (26.7) n (%)
  TRAE: Leukocyte count increased: 6 (40.0) n (%)
  TRAE: Melanocytic nevus: 3 (20.0) n (%)
  TRAE: Neutrophil count increased: 6 (40.0) n (%)
  TRAE: Platelet count increased: 1 (6.7) n (%)
  TRAE: Pyrexia: 1 (6.7) n (%)
30 mg (n = 15), Grade 3-5
  TEAE: Abdominal pain: 1 (6.7) n (%)
  TEAE: Alanine aminotransferase increased: 0 n (%)
  TEAE: Anemia: 1 (6.7) n (%)
  TEAE: Aspartate aminotransferase increased: 0 n (%)
  TEAE: C-reactive protein increased: 0 n (%)
  TEAE: Constipation: 0 n (%)
  TEAE: Fatigue: 0 n (%)
  TEAE: Hyperuricemia: 1 (6.7) n (%)
  TEAE: Hypoalbuminemia: 0 n (%)
  TEAE: Leukocyte count increased: 0 n (%)
  TEAE: Melanocytic nevus: 0 n (%)
  TEAE: Neutrophil count increased: 0 n (%)
  TEAE: Pyrexia: 0 n (%)
  TEAEs: 5 (33.3) n (%)
  TRAE: ALT increased: 0 n (%)
  TRAE: AST increased: 0 n (%)
  TRAE: Anemia: 0 n (%)
  TRAE: Blood creatinine increased: 0 n (%)
  TRAE: Constipation: 0 n (%)
  TRAE: Fatigue: 0 n (%)
  TRAE: Hypoalbuminemia: 0 n (%)
  TRAE: Leukocyte count increased: 0 n (%)
  TRAE: Melanocytic nevus: 0 n (%)
  TRAE: Neutrophil count increased: 0 n (%)
  TRAE: Platelet count increased: 0 n (%)
  TRAE: Pyrexia: 0 n (%)
40 mg (n = 32), Any grade
  TEAE: Abdominal pain: 7 (21.9) n (%)
  TEAE: Alanine aminotransferase increased: 13 (40.6) n (%)
  TEAE: Anemia: 14 (43.8) n (%)
  TEAE: Aspartate aminotransferase increased: 14 (43.8) n (%)
  TEAE: C-reactive protein increased: 8 (25.0) n (%)
  TEAE: Constipation: 13 (40.6) n (%)
  TEAE: Fatigue: 11 (34.4) n (%)
  TEAE: Hyperuricemia: 17 (53.1) n (%)
  TEAE: Hypoalbuminemia: 5 (15.6) n (%)
  TEAE: Leukocyte count increased: 15 (46.9) n (%)
  TEAE: Melanocytic nevus: 10 (31.3) n (%)
  TEAE: Neutrophil count increased: 12 (37.5) n (%)
  TEAE: Pyrexia: 17 (53.1) n (%)
  TEAEs: 32 (100.0) n (%)
  TRAE: ALT increased: 11 (34.4) n (%)
  TRAE: AST increased: 12 (37.5) n (%)
  TRAE: Anemia: 4 (12.5) n (%)
  TRAE: Blood creatinine increased: 5 (15.6) n (%)
  TRAE: Constipation: 13 (40.6) n (%)
  TRAE: Fatigue: 9 (28.1) n (%)
  TRAE: Hypoalbuminemia: 3 (9.4) n (%)
  TRAE: Leukocyte count increased: 12 (37.5) n (%)
  TRAE: Melanocytic nevus: 8 (25.0) n (%)
  TRAE: Neutrophil count increased: 9 (28.1) n (%)
  TRAE: Platelet count increased: 4 (12.5) n (%)
  TRAE: Pyrexia: 14 (43.8) n (%)
40 mg (n = 32), Grade 3-5
  TEAE: Abdominal pain: 0 n (%)
  TEAE: Alanine aminotransferase increased: 0 n (%)
  TEAE: Anemia: 2 (6.3) n (%)
  TEAE: Aspartate aminotransferase increased: 0 n (%)
  TEAE: C-reactive protein increased: 0 n (%)

From publication PMC12583704 (Signal Transduction and Targeted Therapy, 2025)
